# Laboratory results: patent publication US9682908B2, “Method for producing butanol using extractive fermentation” (BUTAMAX ADVANCED BIOFUELS LLC, priority 2013, dated 2017)
# Where two headings read alike, the source gives them in different places.
# Key:
# [1] = system: genetically modified isobutanolagen yeast strain PNY2310; format: cell-based; details: for Glucose: Example 9, With Solvent
# [2] = Equilibrium moisture content of solvent; format: physicochemical; details: Table 1
# Excerpt: The term “moisture content” as used herein refers to the equilibrium saturation of water contained by the solvent, whether or not product alcohol, e.g., isobutanol is present. At times the term “equilibrium” is used in conjunction with “moisture content” to indicate “moisture content” is related to a particular set of conditions, e.g., temperature, pressure, and so on. As will, be apparent, moisture content commonly refers to a maximum amount of water that can be dissolve by the solvent/solvent mixture given a certain set of conditions.
# While the solvent mixture or portions thereof can be immiscible in water, e.g., on the order of 10^−7, in some instances one or more of the solvents can be comparatively weakly miscible in water. It is also to be appreciated, that water can be miscible (e.g., somewhat miscible) in the solvent mixture and/or miscible in one or more solvents included in the solvent mixture. COFA in some examples can absorb moisture, or water, such that the COFA is “wet”. A solvent's tendency to absorb moisture, e.g., act as a solvent, in some examples, can differ from that solvent's ability to solvate in water, e.g., its hydrophobicity. A table of various solvents and their respective characteristics is reproduced directly below.
# [3] = Isobutanol partitioning between solvent and water (Kd, butanol partition coefficient)
# butanologen = assay: Biocompatibility with a butanologen (discussion of examples); format: cell-based
# [4] = system: genetically modified isobutanolagen yeast strain (PNY2141); format: cell-based; details: for Glucose, gpl Grams per Liter / OD: With solvent
# ethanol red yeast strain = assay: Biocompatibility shake flask, glucose (Example 12); format: cell-based
# [5] = system: naturally occurring ethanologen yeast strain; assay: Biocompatibility shake flask, glucose uptake (Example 1A); format: cell-based; details: 32° C.
# Sacchromyces Cerevisiae = details: in vitro; Bennis et al. 2004; cited from earlier work
# [6] = system: genetically modified isobutanologen yeast strain; assay: Biocompatibility shake flask, OD and glucose (Examples 2, 3); format: cell-based; details: for Glucose / OD: Example 3, With Solvent
# [7] = aqueous 2.0 wt % isobutanol, half its mass of solvent
# [8] = aqueous 2.0 wt % isobutanol, half its mass of solvent (5 g/2.5 g or 1 g/0.5 g), HPLC
# [9] = time 0 hr, 10 ml solvent on 20 ml medium, 32° C.
# [10] = 10 ml aqueous 6 wt % isobutanol + 1 ml solvent
# [11] = 10 ml aqueous 6 wt % isobutanol + 1 ml solvent, gas chromatography
# [12] = aqueous 2.0 wt % isobutanol, equal mass of solvent
# [13] = aqueous 2.0 wt % isobutanol, equal mass of solvent (3 g/3 g or 5 g/5 g), HPLC
compound,measurement,setting,value
"CCCCN(CCCC)C(=O)N(CCCC)CCCC [Tetrabutylurea, tetrabutylurea]",glucose concentration versus flask without solvent,[1]; Example 9,No significant difference
same,Glucose,"[1]; time 0 hr, 0.5 OD PNY2310, 10 ml solvent on 20 ml medium, 32° C.",28 g/L
same,Glucose,[1]; time 4 hr,25 g/L
same,Glucose,[1]; time 8 hr,14 g/L
same,Glucose,[1]; time 12 hr,0 g/L
same,Moisture Content (wt %),[2],0.9 wt %
same,"isobutanol in organic layer, calculated by mass balance",[3]; [7],3.06 wt %
same,mass partitioning coefficient,[3]; [7],7.35
same,isobutanol in aqueous layer,[3]; [8],0.417 wt %
same,biocompatibility with a butanologen (found in testing),butanologen,biocompatible with a butanologen
"CC(CC(C)(C)C)CC(C)(C)CC(C)(C)C (stereo not drawn) [Isohexadecane, 2,2,4,4,6,8,8-heptamethylnonane]",Moisture Content (wt %),[2],<0.01 wt %
"CCN(CC)C(=O)c1cccc(C)c1 [DEET, diethyl m-toluamide]","isobutanol in organic layer, calculated by mass balance",[3]; [7],3.17 wt %
same,mass partitioning coefficient,[3]; [7],9.2
same,isobutanol in aqueous layer,[3]; [8],0.34 wt %
CCCCC(CC)CO (stereo not drawn) [2-ethylhexanol],Moisture Content (wt %),[2],2 wt %
"Cc1ccc(C(C)C)cc1O [Carvacrol, carvacrol]",Moisture Content (wt %),[2],2 wt %
same,"isobutanol in organic layer, calculated by mass balance",[3]; [7],3.42 wt %
same,mass partitioning coefficient,[3]; [7],15.5
same,isobutanol in aqueous layer,[3]; [8],0.22 wt %
"CC(C)c1cccc(C(C)C)c1 [1,3-diisopropylbenzene]",consumption of glucose in presence of solvent,[4]; Example 6A,No significant consumption of glucose
same,"Glucose (grams per liter, gpl)","[4]; Example 6A, time 0 hours, 1.0 OD PNY2141, 10 ml solvent on 20 ml medium, 32° C.",30 gpl
same,"Glucose (grams per liter, gpl)","[4]; Example 6A, time 6 hours",30 gpl
same,"Glucose (grams per liter, gpl)","[4]; Example 6A, time 11 hours",30 gpl
same,"Glucose (grams per liter, gpl)","[4]; Example 6A, time 16 hours",28 gpl
same,"Glucose (grams per liter, gpl)","[4]; Example 6A, time 24 hours",29 gpl
same,biocompatibility with a butanologen (found in testing),butanologen,not to be biocompatible
CCCCC(CC)COP(=O)(OCC(CC)CCCC)OCC(CC)CCCC (stereo not drawn) [tris(2-ethylhexyl) phosphate],inhibition in glucose consumption,ethanol red yeast strain; Example 12,No significant inhibition in glucose consumption
same,"Glucose (grams per liter, gpl)","ethanol red yeast strain; time 0 hours, 1.1 OD, 10 ml solvent on 20 ml medium, 32° C.",17 gpl
same,"Glucose (grams per liter, gpl)",ethanol red yeast strain; time 5 hours,0 gpl
same,"Glucose (grams per liter, gpl)",ethanol red yeast strain; time […],11.5 gpl
triisobutylene,growth (OD and glucose) versus flask without solvent,"[4]; Example 1B, PNY2141, 32° C.",Some impedance to growth
same,"Glucose, gpl Grams per Liter",[4]; [9],28 gpl
same,OD,[4]; [9],0.5
same,"Glucose, gpl Grams per Liter",[4]; time 6 hr,27 gpl
same,OD,[4]; time 6 hr,0.6
same,"Glucose, gpl Grams per Liter",[4]; time 10 hr,26 gpl
same,OD,[4]; time 10 hr,0.8
same,"Glucose, gpl Grams per Liter",[4]; time 19 hr,22 gpl
same,OD,[4]; time 19 hr,1.6
same,"Glucose, gpl Grams per Liter",[4]; time 23 hr,21 gpl
same,OD,[4]; time 23 hr,2.1
same,"Glucose, gpl Grams per Liter",[4]; time 30 hr,14 gpl
same,OD,[4]; time 30 hr,2.8
same,"Glucose, gpl Grams per Liter",[4]; time 35 hr,10 gpl
same,OD,[4]; time 35 hr,3.4
same,glucose uptake versus flask without solvent,[5]; 4 hours,No significant difference in glucose uptake
same,glucose in aqueous phase,"[5]; after 4 hours, start 21 g/liter glucose, 0.5 OD, 10 ml solvent on 20 ml medium",less than 0.1 g/liter
same,isobutanol in aqueous layer,[3]; [10],1.33 mole %
same,isobutanol in organic layer,[3]; [10],18.39 mole %
same,mass partitioning coefficient,[3]; [10],1.71
same,molar partitioning coefficient,[3]; [10],13.8
same,isobutanol in aqueous layer,[3]; [11],5.28 wt %
same,isobutanol in organic layer,[3]; [11],9.03 wt %
same,"isobutanol in organic layer, calculated by mass balance",[3]; [12],0.47 wt %
same,mass partitioning coefficient,[3]; [12],0.31
same,isobutanol in aqueous layer,[3]; [13],1.53 wt %
Cc1ccc(C(C)C)c(O)c1 [thymol],MFC (minimum fungal concentration),Sacchromyces Cerevisiae,1800 µM
same,"MIC, minimum inhibitory concentration",Sacchromyces Cerevisiae,1500 µM
CC(C)CC(C)CC(O)CC(C)C (stereo not drawn) [Isododecanol],Moisture Content (wt %),[2],0.2 wt %
same,"isobutanol in organic layer, calculated by mass balance",[3]; [7],2.87 wt %
same,mass partitioning coefficient,[3]; [7],5.42
same,isobutanol in aqueous layer,[3]; [8],0.53 wt %
"CC(CC(C)(C)C)CC(C)(C)C [isododecane, 2,2,4,6,6-pentamethylheptane]",growth (glucose uptake and OD) versus flask without solvent,[6]; Example 3,No significant difference in growth
same,Glucose,[6]; time 0 hr,32 g/L
same,OD,"[6]; time 0 hr, 32 g/liter glucose, 10 ml solvent on 20 ml medium, 32° C.",0.5
same,Glucose,[6]; time 7 hr,32 g/L
same,OD,[6]; time 7 hr,0.9
same,Glucose,[6]; time 13 hr,25 g/L
same,OD,[6]; time 13 hr,1.6
same,Glucose,[6]; time 23 hr,5 g/L
same,OD,[6]; time 23 hr,4.9
same,Glucose,[6]; time 29 hr,0.1 g/L
same,OD,[6]; time 29 hr,5.0
same,Moisture Content (wt %),[2],<0.01 wt %
same,isobutanol in aqueous layer,[3]; [10],1.39 mole %
same,isobutanol in organic layer,[3]; [10],17.24 mole %
same,mass partitioning coefficient,[3]; [10],1.525
same,molar partitioning coefficient,[3]; [10],12.4
same,isobutanol in aqueous layer,[3]; [11],5.45 wt %
same,isobutanol in organic layer,[3]; [11],8.31 wt %
same,"isobutanol in organic layer, calculated by mass balance",[3]; [12],0.40 wt %
same,mass partitioning coefficient,[3]; [12],0.25
same,isobutanol in aqueous layer,[3]; [13],1.60 wt %
same,biocompatibility with a butanologen (found in testing),butanologen,biocompatible with a butanologen
